The record followed here is patent US20170205396A1, “SYSTEMS AND METHODS FOR CULTURING NEPHRON PROGENITOR CELLS” (Salk Institute for Biological Studies, priority 2016, published 2017).

The subject of series [1] is Six2-GFP+ NPCs. The experiment in a line: NPSR-based 3D aggregate culture of primary NPCs (srNPC derivation, long-term expansion, component withdrawal). Format: cell-based, mouse. The conditions noted are these: each of six components subtracted, period as short as 4 days. The source says: NPCs in mouse first appear around embryonic day 11.5 (E11.5) and mark the onset of nephrogenesis. In mice, NPCs exhaust shortly after birth, around postnatal day 3 (P3), after their last wave of differentiation into nephrons. Lineage tracing experiments have established SIX2 as a specific NPC marker. Available mouse strain with GFP cassette knocked in the Six2 locus (Six2^GCE) facilitates purification of Six2-GFP+ population from embryonic or neonatal mouse kidneys by fluorescence activated cell sorting (FACS). To screen for conditions conducive to in vitro expansion of NPCs Six2-GFP+ cells were isolated from E13.5 embryonic kidneys of Six2^GCE mice. Considering that in vivo NPCs are tightly packed together, it was hypothesized that the cell-cell contact might play a role in their survival and proliferation. Thus, to better preserve the native microenvironment, sorted Six2-GFP+ NPCs were transferred into U-bottom low-attachment 96-well plates to form 3D aggregates. In base medium supplemented with serum alone NPC aggregates could form.
The optimal condition supportive of NPC self-renewal in vitro was determined by screening growth factors and chemical inhibitors for known signaling pathways implicated in regulating NPC survival, self-renewal, and differentiation in vivo as well as other signaling pathways that were not previously reported. Cell viability, growth rate, and GFP signal were considered among other criteria. Through successive testing a novel culture condition was established containing a cocktail of BMP7, FGF2, Heparin, Y27632, LIF, and CHIR99021 that promotes long-term in vitro expansion of Six2-GFP+ NPCs with high purity (it was named NPC self-renewal medium, or NPSR medium) (FIG. 1A). Of note is that isolated Six2+ NPCs have been propagated in this culture for more than one year and more than 70 passages. The established NPC lines were designated as self-renewable NPCs (srNPCs) due to their unlimited proliferative potential. srNPCs grow fast under this culture condition. Starting with 3,000 cells, after 5 days, the aggregate can grow to around 1 mm in diameter containing around 100,000 cells (FIG. 1B and FIG. 1C). srNPC aggregates maintain stable growth rate after long term passages with 6 to 7 doublings per passage (FIG. 1D). […] Moreover, similar results were obtained when SIX2 and other NPC marker gene expressions were quantified by immunostaining: SIX2+ (˜96.2%), SALL1+ (˜99.1%), CITED1+ (˜96.1%) (FIG. 1E). […] To this end each of the six components were subtracted from NPSR medium and evaluated the effects on srNPCs.
It was determined whether NPSR culture could also support the derivation of srNPCs from other developmental stages harboring Six2+ populations. […]

Series [2] has as its system nephron organoids. The experiment in a line: Mouse nephron organoid generation and chemical treatment. Type of series: cell-based. From the text:
Given kidney's primary function in plasma filtration and metabolic homeostasis, drug-induced nephrotoxicity is common and constitutes a major consideration during the development of new therapeutic drugs. Currently, drug toxicity screening is largely performed using monolayer cultured immortalized kidney cells. Cells in monolayer culture, however, lack an intact 3D nephron structure and are thus limited for accurate prediction of a drug's effect on kidney function. Another layer of complexity during drug screening using immortalized cell lines relates to genetic abnormalities. […] A screen was done to determine conditions that allow efficient organoid generation from srNPCs. […] Committed srNPCs were designated as fate-specified NPCs or FS-NPCs. FS-NPCs could further differentiate autonomously and form nephron organoids marked by numerous tubular formations (FIG. 3B). Whole-mount staining of obtained nephron organoids identified numerous PODXL+/WT1+ glomeruli, LTL+ proximal tubules and CDH1+ distal tubules. The transition from srNPCs via FS-NPCs to nephron organoids was rapid (as short as 7 days), highly efficient and composed of all major nephron segments representing the glomeruli and proximal and distal tubules.
In vivo, NPCs first differentiate to pretubular aggregates (PTA) and renal vesicles (RV) before further maturation to form the segmented renal tubules. To determine which stage FS-NPCs likely correspond to, the expression of common PTA and RV markers was checked. […] Immunofluorescence studies confirmed protein expression of both PTA/RV markers (LHX1 and PAX8) and NPC markers (SIX2 and SALL1) in FS-NPCs.
The utility of srNPC-derived organoids for renal toxicity testing was determined. […]
CD2AP is an important interacting protein for NEPHRIN and PODOCIN and is necessary for proper glomerulus functions and mutations in CD2AP are associated with sporadic nephrotic syndrome and focal segmental glomerulosclerosis (FSGS). […] Consistent with the hypothesis, Cd2ap was expressed in wild type (#2) while barely detected in gene-disrupted (#1 and #3) organoids (FIG. 3E). […]

Take `C[C@@H](N)[C@H]1CC[C@H](C(=O)Nc2ccncc2)CC1` [Y27632]: the “effect of removal of the component from NPSR medium on srNPCs” value (from here on “effect of removal of the component”) in series [1] is listed as “slower cell growth”.
As for “LIF: leukemia inhibitory factor protein, an interleukin 6 class cytokine”, the “effect of removal of the component” value in series [1] is on record as “loss of GFP signal”.
In the case of `C[C@H](NC(=O)Cc1cc(F)cc(F)c1)C(=O)N[C@H](C(=O)OC(C)(C)C)c1ccccc1` [DAPT], the “effect on proximal tubule and glomerulus differentiation” value in series [2] (5 μM, day 2 to day? (FS-NPCs to nephron organoids)) is “both proximal tubules and glomerulus differentiation were inhibited”.
For the compound “FGF2: fibroblast growth factor, NPSR medium component”, the “effect of removal of the component” value in series [1] was “slower cell growth”.
Take Heparin: the “effect of removal of the component” value in series [1] is on record as “slower cell growth”.
On to lipopolysaccharide [LPS], for which the “glomerulus injury in nephron organoids (morphology, active Caspase 3)” value in series [2] (20 μg/ml, two-day exposure, day 7 organoids) is on record as “specific damages in the glomerulus”. Moreover, in series [2] (low dosage 10 μg/ml, two days, tetO srNPC lines), the “apoptotic cells (active Caspase 3) in Cd2ap-deficient versus wild type organoids” value is listed as “accumulated more apoptotic cells than the wild type”.
